Reference: ChEMBL document CHEMBL6109134, “Discovery of AMG 193, an MTA-Cooperative PRMT5 Inhibitor for the Treatment of MTAP-Deleted Cancers” (J Med Chem, 2025)

Legend:
in vivo = conditions: CD-1, mouse, iv, 1 mg/kg
[1] = Clearance in CD-1 mouse at 1 mg/kg, iv; conditions: in vivo
HCT-116 [2] = assay: Antiproliferative activity against MTAP-deleted human HCT-116 cells assessed as effect on cell viability incubated for 6 days by Celltiter-Glo luminescent cell viability assay; format: functional, cell-based; conditions: HCT-116, 144 h
[3] = Metabolic stability in mouse liver microsomes assessed as intrinsic clearance at 0.5 uM incubated for 40 mins in presence of NADPH; format: ADME, Microsome; conditions: read-out: CLH
[4] = Metabolic stability in human liver microsomes assessed as intrinsic clearance at 0.5 uM incubated for 40 mins in presence of NADPH; format: ADME, Microsome; conditions: read-out: CLH
CYP3A4 = CYP3A4 (Homo sapiens, UniProt P08684); assay: in vitro; conditions: human liver microsomes, probe midazolam
CYP3A4, sequence (P08684 whole entry): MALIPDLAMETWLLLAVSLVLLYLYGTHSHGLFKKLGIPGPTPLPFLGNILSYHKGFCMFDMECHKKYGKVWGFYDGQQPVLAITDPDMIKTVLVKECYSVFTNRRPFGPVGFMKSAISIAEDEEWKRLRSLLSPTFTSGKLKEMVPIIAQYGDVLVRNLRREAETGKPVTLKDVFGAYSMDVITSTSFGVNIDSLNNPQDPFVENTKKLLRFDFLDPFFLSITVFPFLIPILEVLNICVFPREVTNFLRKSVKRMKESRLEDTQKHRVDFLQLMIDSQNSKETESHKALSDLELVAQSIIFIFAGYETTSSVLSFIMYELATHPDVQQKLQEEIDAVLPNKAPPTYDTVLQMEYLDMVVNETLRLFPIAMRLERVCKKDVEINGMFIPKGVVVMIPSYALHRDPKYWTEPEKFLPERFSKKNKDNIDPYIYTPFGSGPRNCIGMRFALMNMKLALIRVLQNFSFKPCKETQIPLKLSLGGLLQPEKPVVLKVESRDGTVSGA

[5] = Half-life in CD-1 mouse at 1 mg/kg, iv; format: ADME, organism-based; conditions: in vivo
PRMT5/MEP50 complex = PRMT5/MEP50 complex (Homo sapiens, UniProt O14744)
PRMT5/MEP50 complex, sequence (O14744 whole entry): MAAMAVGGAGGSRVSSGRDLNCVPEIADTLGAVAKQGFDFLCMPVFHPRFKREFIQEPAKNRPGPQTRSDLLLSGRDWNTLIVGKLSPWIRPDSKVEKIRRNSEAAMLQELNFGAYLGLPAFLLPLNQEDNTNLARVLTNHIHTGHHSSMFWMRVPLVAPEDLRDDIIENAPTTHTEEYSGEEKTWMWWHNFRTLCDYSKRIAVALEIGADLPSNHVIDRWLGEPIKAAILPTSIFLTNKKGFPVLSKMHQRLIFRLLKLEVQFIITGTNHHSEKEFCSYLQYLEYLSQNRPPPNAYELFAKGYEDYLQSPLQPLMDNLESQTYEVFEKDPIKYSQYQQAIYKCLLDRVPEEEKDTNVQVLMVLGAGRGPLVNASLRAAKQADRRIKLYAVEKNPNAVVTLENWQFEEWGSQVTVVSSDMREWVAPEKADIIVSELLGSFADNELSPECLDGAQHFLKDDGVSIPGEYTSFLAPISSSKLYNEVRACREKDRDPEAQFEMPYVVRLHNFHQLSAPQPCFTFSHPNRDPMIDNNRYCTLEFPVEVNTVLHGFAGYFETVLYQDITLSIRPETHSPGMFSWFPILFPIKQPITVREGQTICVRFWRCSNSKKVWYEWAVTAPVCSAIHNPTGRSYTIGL
PRMT5/MEP50 complex, sequence (Q9BQA1 whole entry, further chain): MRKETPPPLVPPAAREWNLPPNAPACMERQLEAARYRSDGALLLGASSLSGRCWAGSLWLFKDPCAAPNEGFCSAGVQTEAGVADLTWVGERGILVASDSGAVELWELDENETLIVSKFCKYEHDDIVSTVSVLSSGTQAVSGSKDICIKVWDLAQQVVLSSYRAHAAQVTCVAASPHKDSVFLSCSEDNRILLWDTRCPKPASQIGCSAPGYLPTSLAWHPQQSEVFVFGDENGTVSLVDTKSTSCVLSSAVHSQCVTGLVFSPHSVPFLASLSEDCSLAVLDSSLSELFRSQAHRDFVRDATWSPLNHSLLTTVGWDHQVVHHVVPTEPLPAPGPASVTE
Description: Inhibition of PRMT5/MEP50 (unknown origin) preincubated with compound for 24 hrs in presence of SAM and MTA followed by Histone H4 (1-21)-Lys(Biotin) peptide addition and measured after 2 hrs by MTase-Glo reagent based assay

[6] = Oral bioavailability in CD-1 mouse at 5 mg/kg administered as 1% Tween 80, 2% HPMC, 97% water/methane sulfonic acid, pH 2.0 formulation; format: ADME, organism-based; conditions: in vivo
HCT-116 [7] = assay: Antiproliferative activity against human HCT-116 cells harboring wildtype MTAP assessed as effect on cell viability incubated for 6 days by Celltiter-Glo luminescent cell viability assay; format: functional, cell-based; conditions: HCT-116, 144 h
[8] = molecular target: T1, Nuclear receptor subfamily 1 group I member 2 (Homo sapiens, UniProt O75469); assay: Activation of human PXR in human HepG2 cells co-transfected with CYP3A4-luciferase at 10 uM incubated for 1 day relative to control; conditions: hepg2, 24 h
T1 sequence (O75469 whole entry): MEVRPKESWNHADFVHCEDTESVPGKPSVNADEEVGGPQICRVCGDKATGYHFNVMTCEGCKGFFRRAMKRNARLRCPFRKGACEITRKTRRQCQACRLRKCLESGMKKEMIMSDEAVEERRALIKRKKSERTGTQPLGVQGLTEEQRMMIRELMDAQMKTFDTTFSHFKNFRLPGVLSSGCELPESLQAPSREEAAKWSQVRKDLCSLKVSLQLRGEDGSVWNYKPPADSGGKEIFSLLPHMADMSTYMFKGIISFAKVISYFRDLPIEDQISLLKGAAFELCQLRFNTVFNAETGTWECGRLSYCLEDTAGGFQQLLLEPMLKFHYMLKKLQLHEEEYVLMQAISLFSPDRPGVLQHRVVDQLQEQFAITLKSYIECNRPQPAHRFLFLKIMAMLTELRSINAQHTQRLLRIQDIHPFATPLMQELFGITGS

human MDR1 (P-gp) = assay: Efflux ratio of permeability across basolateral to apical side over apical to basolateral side in MDCK cells transfected with human MDR1 in absence of elacridar; conditions: dog
[9] = Unbound clearance in CD-1 mouse at 1 mg/kg, iv; format: ADME, organism-based; conditions: in vivo
[10] = Protein binding in mouse plasma assessed as unbound fraction by ultracentrifugation; conditions: mouse plasma

SMILES	Vd (in vivo)	clearance [1]	IC50 (HCT-116 [2])	microsomal CLint at 0.5 µM [3]	microsomal CLint at 0.5 µM [4]	inhibition at 30 min, 10 µM (CYP3A4)	half-life [5]	Ki (PRMT5/MEP50 complex)	bioavailability [6]	IC50 (HCT-116 [7])	Activity [8]	efflux ratio (human MDR1 (P-gp))	CL free [9]	fraction unbound [10]
Nc1nc2ccc(C(=O)N3CCOC[C@@H]3c3ccc(C(F)(F)F)cc3)cc2c2c1COC2	1.6 L/kg	6.67 mL/min/kg	233 nM	78 µL/min/mg	50 µL/min/mg	< 20%	2.7 h	< 0.1 nM	61%	4810 nM	< 20%	13	130 mL/min/kg	0.05
C[C@H](c1ncccn1)N(Cc1ccc(C(F)(F)F)cn1)C(=O)c1cnc2nc(N)c3c(c2c1)COC3			83 nM	17 µL/min/mg	22 µL/min/mg	< 1%		< 0.1 nM		409 nM	1%			
C[C@@H]1COC[C@H](c2ccc(C(F)(F)F)cc2)N1C(=O)c1cc2c3c(c(N)nc2cn1)COC3	3 L/kg	18.3 mL/min/kg	7 nM	178 µL/min/mg	43 µL/min/mg	< 20%	2.6 h	< 0.1 nM	51%	264 nM	< 20%	5	233 mL/min/kg	0.08
C[C@H](c1ncccn1)N(Cc1ccc(C(F)(F)F)cn1)C(=O)c1cc2c3c(c(N)nc2cc1F)COC3			10 nM	624 µL/min/mg	262 µL/min/mg	≤ 10%		< 0.1 nM		26 nM	50%	31		
CCN(Cc1ccc(C(F)(F)F)cn1)C(=O)c1ccc2nc(N)c3c(c2c1)COC3	1.5 L/kg	11.7 mL/min/kg	100 nM	45 µL/min/mg	30 µL/min/mg	< 20%	2 h	< 0.1 nM	95%	3210 nM	< 20%	10	96.7 mL/min/kg	0.12
C[C@H](c1ncccn1)N(Cc1ccc(C(F)(F)F)cn1)C(=O)c1ccc2nc(N)ccc2c1			482 nM	62 µL/min/mg	< 14 µL/min/mg	21%		0.6 nM		743 nM	17%	15		
Nc1nc2cnc(C(=O)N3CCCC[C@@H]3c3ccc(C(F)(F)F)cc3)cc2c2c1COC2			112 nM	102 µL/min/mg	74 µL/min/mg	< 20%		< 0.1 nM		2090 nM	< 20%	4		
C[C@H](c1ncccn1)N(Cc1ccc(C(F)(F)F)cn1)C(=O)c1cc2c3c(c(N)nc2cn1)COC3			202 nM	154 µL/min/mg	67 µL/min/mg	4%		0.1 nM		1860 nM	9%	61		
C[C@@H]1OCc2c1c(N)nc1cnc(C(=O)N3CCOC[C@@H]3c3ccc(C(F)(F)F)cc3)cc21			4600 nM	64 µL/min/mg	49 µL/min/mg	< 20%		1.1 nM		> 50000 nM	< 20%	7		
Cc1cc2cc(C(=O)N(Cc3ccc(C(F)(F)F)cn3)CC(C)C)ccc2nc1N			431 nM	148 µL/min/mg	32 µL/min/mg	52%				6090 nM	22%			
